Source: patent US20230123334A1, “AMINO LIPID COMPOUND, PREPARATION METHOD THEREFOR, AND APPLICATION THEREOF” (SHENZHEN SHENXIN BIOTECHNOLOGY CO., LTD., priority 2020, published 2023)

The compounds below were run on HEK293 cells (assay: Preliminary screening as mRNA vectors, EGFP mRNA transfection of HEK293 cells). Conditions: EGFP mRNA 50 ng per well, 96-well plates; percentage of GFP fluorescent cells relative to total number of cells (Hoechst).
Type: cell-based
Method in brief: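 HEK293 cells in DMEM plus 10% FBS transfected in 96-well format with 50 ng EGFP mRNA per well; Lipofectamine2000 served as positive control. Read-out is the percentage of GFP-fluorescent cells among total cells, counted by Hoechst nuclear stain.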

Point of comparison: `CCCCCCCCCCCCN(CCCCCCCCCCCC)c1nc(NCCN(C)C)nc(SCCCCCC)n1` [D1S6^2N12], “Absolute mRNA transfection efficiency in HEK293 cells” value 0.7%. Against it:
- CCCCCCCNc1nc(NCCN(C)C)nc(SCCCCCC)n1 [Compound D1S6N7] — higher, 2.3%
- CCCCCCCCCCCCCCCCSc1nc(NCCN(C)C)nc(SCCCCCCC)n1 [Compound D1S7S16] — higher, 6.9%
- CCCCCCCCCCCCSc1nc(NCCN2CCN(C)CC2)nc(SCCCCCCC)n1 [Compound D5S7S12] — higher, 48.8%
- CCCCCCCNc1nc(NCCN2CCOCC2)nc(SCCCCCC)n1 [Compound D2S6N7] — higher, 2.7%
- CCCCCCCCCCCCN(CCCCCCCCCCCC)c1nc(NCCCN(C)C)nc(SCCCCCCC)n1 [D6S7^2N12] — higher, 0.9%
- CCCCCCCCCCCCCCCCNc1nc(NCCN(CC)CC)nc(SCCCCCCCCCCCCCC)n1 [Compound D7S14N16] — higher, 2.7%
- CCCCCCCCCCCSc1nc(NCC2CCN(C)CC2)nc(SCCCCCCC)n1 [Compound D10S7S11] — higher, 60.8%
- CCCCCCCCCCCCCCCCSc1nc(NCCN(CC)CC)nc(N(CCCCCCCCCCCC)CCCCCCCCCCCC)n1 [D7S16^2N12] — higher, 0.8%
- CCCCCCCCCCCCCCCCSc1nc(NCCCCCCCCCCC)nc(NCCCN2CCN(C)CC2)n1 [Compound D9S16N11] — higher, 68.4%
- CCCCCCCCCCCNc1nc(NCCCN2CCN(C)CC2)nc(SCCCCCC)n1 [Compound D9S6N11] — higher, 11.9%
- CCCCCCCCCCCCCCCCSc1nc(NCCCCCCCCCCCCCCC)nc(NCCN2CCCC2)n1 [Compound D3S16N15] — lower, 0.0%
- CCCCCCCCCCCCCCCCCCNc1nc(NCCN(C)C)nc(SCCCCCCCCCCCCCC)n1 [Compound D1S14N18] — higher, 1.8%
- CCCCCCCNc1nc(NCCCN(C)C)nc(SCCCCCC)n1 [Compound D6S6N7] — lower, 0.2%
- CCCCCCCCCCCCCCSc1nc(NCCCCCCCC)nc(NCCN(C)C)n1 [Compound D1S14N8] — higher, 56.7%
- CCCCCCCCCCCCCCCCNc1nc(NCCCN2CCN(C)CC2)nc(SCCCCCCCCCCCC)n1 [Compound D9S12N16] — higher, 1.2%
- CCCCCCCCCCCCCCCCCCNc1nc(NCCCN(C)C)nc(SCCCCCCCCCCC)n1 [Compound D6S11N18] — higher, 14.6%
- CCCCCCCCCCCCCCCCCCNc1nc(NCCN2CCN(C)CC2)nc(SCCCCCCCCCCC)n1 [Compound D5S11N18] — higher, 4.7%
- CCCCCCCCCCCNc1nc(NCCN(CC)CC)nc(SCCCCCC)n1 [Compound D7S6N11] — higher, 3.8%
- CCCCCCCCCCCCCCCNc1nc(NCCCN(C)C)nc(SCCCCCCCC)n1 [Compound D6S8N15] — higher, 55.3%
- CCCCCCCCCCCCCCCCNc1nc(NCCN(C)C)nc(SCCCCCC)n1 [Compound D1S6N16] — higher, 3.3%
- CCCCCCCCCCCCCCSc1nc(NCCCCCCCCCCCCC)nc(NCCN2CCN(C)CC2)n1 [Compound D5S14N13] — higher, 12.9%
- CCCCCCCCCCCCCCCCNc1nc(NCCN2CCN(C)CC2)nc(SCCCCCCCCCCC)n1 [Compound D5S11N16] — higher, 3.9%
- CCCCCCCCCCCCCCCCSc1nc(NCCN2CCCC2)nc(N(CCCCCCCCCCCC)CCCCCCCCCCCC)n1 [D3S16^2N12] — lower, 0.2%
- CCCCCCCCNc1nc(NCCCN2CCN(C)CC2)nc(SCCCCCC)n1 [Compound D9S6N8] — higher, 2.5%
- CCCCCCCCCCCCCCCCCCSc1nc(NCCCCCCCCC)nc(NCC2CCN(C)CC2)n1 [Compound D10S18N9] — higher, 8.9%
- CCCCCCCCCCCCCCSc1nc(NCC2CCN(C)CC2)nc(SCCCCCC)n1 [Compound D10S6S14] — higher, 54.4%
- CCCCCCCCCCCSc1nc(NCCN(CC)CC)nc(SCCCCCCC)n1 [Compound D7S7S11] — higher, 4.5%
- CCCCCCCCCCCCCCSc1nc(NCCCCCCCCCCC)nc(NCCN(CC)CC)n1 [Compound D7S14N11] — higher, 17.0%
- CCCCCCCCCCCCCCCCSc1nc(NCCCCCCCCCCCCC)nc(NCCN2CCOCC2)n1 [Compound D2S16N13] — lower, 0.0%
- CCCCCCCCCCCCCCCCCCSc1nc(NCCCCCCCCC)nc(NCCCN2CCN(C)CC2)n1 [Compound D9S18N9] — higher, 7.6%
- CCCCCCCCCCCCNc1nc(NCCN(C)C)nc(SCCCCCCCCCCC)n1 [Compound D1S11N12] — higher, 27.3%
- CCCCCCCCCCCCCCCNc1nc(NCCCN(C)C)nc(SCCCCCCCCCC)n1 [Compound D6S10N15] — higher, 3.5%
- CCCCCCCCCCCSc1nc(NCCCCCCC)nc(NCCN2CCCCC2)n1 [Compound D4S11N7] — higher, 2.3%
- CCCCCCCCCCCSc1nc(NCCCCCCCC)nc(NCCCN(C)C)n1 [Compound D6S11N8] — higher, 16.8%
- CCCCCCCCCCCCCCCNc1nc(NCCN(C)C)nc(SCCCCCCCCCCC)n1 [Compound D1S11N15] — higher, 6.2%
- CCCCCCCCCCCCCCCNc1nc(NCCCN(C)C)nc(SCCCCCCCCCCCC)n1 [Compound D6S12N15] — higher, 1.6%
- CCCCCCCSc1nc(NCCN2CCCCC2)nc(SCCCCCC)n1 [Compound D4S6S7] — higher, 1.2%
- CCCCCCCCCCCCCCCCSc1nc(NCCN2CCN(C)CC2)nc(SCCCCCCC)n1 [Compound D5S7S16] — higher, 49.2%
- CCCCCCCCCCCCN(CCCCCCCCCCCC)c1nc(NCCCN2CCN(C)CC2)nc(SCCCCCCC)n1 [D9S7^2N12] — higher, 1.0%
- CCCCCCCNc1nc(NCCN2CCOCC2)nc(SCCCCCCC)n1 [Compound D2S7N7] — higher, 1.1%
- CCCCCCCCSc1nc(NCCCCCCC)nc(NCC2CCN(C)CC2)n1 [Compound D10S8N7] — lower, 0.3%
- CCCCCCCCCCCCCNc1nc(NCCN2CCCC2)nc(SCCCCCCCC)n1 [Compound D3S8N13] — higher, 35.8%
- CCCCCCCSc1nc(NCCN(C)C)nc(SCCCCCCC)n1 [Compound D1S7S7] — higher, 14.9%
- CCCCCCCCCCCCCCCSc1nc(NCC2CCN(C)CC2)nc(SCCCCCC)n1 [Compound D10S6S15] — higher, 40.0%
- CCCCCCCCCCCCCCCSc1nc(NCCCCCCCCCCCCC)nc(NCCCN2CCOCC2)n1 [Compound D8S15N13] — lower, 0.2%
- CCCCCCCCCCCCCCSc1nc(NCCCCCC)nc(NCCCN2CCN(C)CC2)n1 [Compound D9S14N6] — higher, 27.2%
- CCCCCCCCCCCCCCCCCCSc1nc(NCCCCCCCCCCCCC)nc(NCCN2CCN(C)CC2)n1 [Compound D5S18N13] — higher, 1.4%
- CCCCCCCCCCCCCNc1nc(NCCCN2CCOCC2)nc(SCCCCCCC)n1 [Compound D8S7N13] — higher, 5.8%
- CCCCCCCCCCCCSc1nc(NCCN2CCCC2)nc(SCCCCCC)n1 [Compound D3S6S12] — higher, 1.0%
- CCCCCCCCCSc1nc(NCCCN(C)C)nc(SCCCCCCC)n1 [Compound D6S7S9] — higher, 14.3%
- CCCCCCCCCCCCCCCNc1nc(NCCN2CCN(C)CC2)nc(SCCCCCCCCCCCCCCC)n1 [Compound D5S15N15] — the same, 0.7%
- CCCCCCCCCCCCCCCCCCNc1nc(NCCN(C)C)nc(SCCCCCCCCCCCC)n1 [Compound D1S12N18] — lower, 0.0%
- CCCCCCCSc1nc(NCCCCCC)nc(NCCCN2CCOCC2)n1 [Compound D8S7N6] — higher, 1.8%
- CCCCCCCCCCCCNc1nc(NCCN2CCN(C)CC2)nc(SCCCCCCCCCC)n1 [Compound D5S10N12] — higher, 3.6%
- CCCCCCCCSc1nc(NCCCN(C)C)nc(SCCCCCCCC)n1 [Compound D6S8S8] — higher, 45.6%
- CCCCCCCCCCCCNc1nc(NCCCN(C)C)nc(SCCCCCCCCCCC)n1 [Compound D6S11N12] — higher, 15.9%
- CCCCCCCCCSc1nc(NCCCCCC)nc(NCCCN(C)C)n1 [Compound D6S9N6] — higher, 1.4%
- CCCCCCCNc1nc(NCC2CCN(C)CC2)nc(SCCCCCC)n1 [Compound D10S6N7] — higher, 5.5%
- CCCCCCCCCCCCCCCCNc1nc(NCCCN(C)C)nc(SCCCCCCCCCCCCCCCC)n1 [Compound D6S16N16] — lower, 0.1%
- CCCCCCCCCCCNc1nc(NCC2CCN(C)CC2)nc(SCCCCCCCCCC)n1 [Compound D10S10N11] — higher, 8.8%
- CCCCCCCCCCCCCCCNc1nc(NCCN(C)C)nc(SCCCCCCCCCC)n1 [Compound D1S10N15] — higher, 2.8%
- CCCCCCCCCCCCCCCCCCNc1nc(NCCCN(C)C)nc(SCCCCCCCCC)n1 [Compound D6S9N18] — higher, 44.8%
- CCCCCCCCCCCCCCCSc1nc(NCCCCCCCCC)nc(NCCN2CCN(C)CC2)n1 [Compound D5S15N9] — higher, 22.3%
- CCCCCCCCCCCCCCCCNc1nc(NCCN2CCCC2)nc(SCCCCCCCCCC)n1 [Compound D3S10N16] — higher, 56.7%
- CCCCCCCCSc1nc(NCCCCCCC)nc(NCCN2CCN(C)CC2)n1 [Compound D5S8N7] — higher, 2.5%
- CCCCCCCCCCCCCCCCCCSc1nc(NCCCCCCCCCCCCC)nc(NCCCN(C)C)n1 [Compound D6S18N13] — higher, 1.0%
